Where a name gives a salt, the structure may show the parent alone.
Tested on: rat foot pad
Experiment: Inhibition of sweat in the rat foot pad (iodine/starch count of activated sweat glands, test foot vs control foot)
Type: in vivo, Sprague Dawley rats
Details: for Approx. % Inhibition: topical on hind foot pads, photo 40 minutes post treatment
Method: To test the effectiveness of the adrenergic amines encompassed in this invention in inhibiting perspiration the following tests were carried out.
A series of test solutions were prepared by dissolving various quantities of xylometazoline HCl, oxymetazoline HCl and naphazoline HCl in freshly prepared distilled water. In the case of xylometazoline HCl 0.003%, 0.03%, 0.15% and 0.3% solutions were prepared. In the cases for oxymetazoline HCl and naphazoline HCl 0.15% solutions were made. The control material is distilled water.
• A. Prior to testing, rats are routinely acclimated to the laboratory environment for seven days and gross observations are made to ensure good health of animals to be tested. • B. Sprague Dawley rats, male and/or female (175-250 gm) are selected for test and identified by cage label and ear tag number. • C. A minimum of 6 animals is used in testing each solution.
• A. Test room should be maintained at a temperature of 78/± 2/F. • B. • 1. Test animals are injected intramuscularly with Innovar Vet\)\ (.01 ml/100 gm body wt.) by use of a 0.25 ml tuberculin syringe with a 26-27 gauge needle. Animals are then returned to their cages. • 2. […] Both hind feet are then swabbed with 70% ethyl alcohol (ETOH) to remove any debris. • 4. The four interdigital palmar foot pads on one hind foot are then treated with test material while the opposite hind foot is treated with the control material. • 5. After treatment of all animals, an iodine solution (2% in 95% ETOH wt./vol.) is applied to both hind feet. • 6. 30 minutes post treatment the hind feet are then painted with a suspension of starch and castor oil (50/50, wt./vol.). • 7. 40 minutes post treatment Polaroid photos (3X, using Polaroid Type Film 669) are taken of both hind feet in the same frame.
• 1. The number of activated sweat glands in each of the four palmar foot pads is quantitated by manually counting the black dots observed in the photo of the control and test treated feet. • 2. The ratio of the total number of secreting sweat glands on the control foot vs the total number of secreting glands on the test foot is used to estimate the percent inhibition of sweat in the rat foot pad. • 3. The following formula is used to calculate activity: Percent inhibition of sweat in the rat foot pad = [formula]

[1] = Concentration tested 0.15% in distilled water

SMILES | Approx. % Inhibition [1] [%] | Approx. % Inhibition (Concentration tested 0.003% in distilled water) [%] | Approx. % Inhibition (Concentration tested 0.03% in distilled water) [%] | Approx. % Inhibition (Concentration tested 0.3% in distilled water) [%] | perspiration inhibition (result in words) (summary of Table I, concentrations 0.003-0.3%)
c1ccc2c(CC3=NCCN3)cccc2c1 [Naphazoline HCl, naphazoline HCl] | ~95 | – | – | – | –
Cc1cc(C(C)(C)C)c(O)c(C)c1CC1=NCCN1 [Oxymetazoline HCl, oxymetazoline HCl] | ~92 | – | – | – | –
Cc1cc(C(C)(C)C)cc(C)c1CC1=NCCN1 [Xylometazoline HCl, xylometazoline HCl] | ~80 | ~30 | ~50 | ~88 | a dose response has been demonstrated

— patent EP0325016A1, “Antiperspirants with alpha-2-adrenergic amine activity” (Bristol-Myers Company, priority 1988, dated 1989)
